Results as given in paper PMC9603901, “Therapeutic Potential of Antimicrobial Peptide PN5 against Multidrug-Resistant E. coli and Anti-Inflammatory Activity in a Septic Mouse Model” (Microbiology Spectrum, 2022).
Values after ≈ are worked out from the molar mass of the structure shown. Where no end group is shown, it is not given here.

What was measured:
MDR E. coli ASEC 18 = test system: MDR E. coli ASEC 18; design: method as in Asan hospital; key to susceptibility category: S: susceptible; R: resistant; I: intermediate; conditions: ref Asan hospital, cited from earlier work; for MIC: ASEC 18 (AmpC), resistance information of clinical isolate; for susceptibility category: ASEC 18
[1] = test system: ASEC strains (drug-resistant E. coli, ASEC 1 to 19); assay: MIC, microdilution, summary over clinical isolates; assay type: cell-based; conditions: Escherichia coli; cefotaxime and ceftazidime: 'mostly showed no activity'
Description: (§1) Bacterial cells were cultured at 37°C in the appropriate culture media with shaking (180 rpm). Luria-Bertani broth (LB) (244620; BD Difco) was used for E. coli ATCC 25922, ASEC strains, and B. subtilis KCTC 2217. Nutrient broth (NB) (234000; BD Difco) was used for P. aeruginosa ATCC 27853, S. Typhimurium KCTC 1926, and A. baumannii KCTC 2508. Tryptic soy broth (TSB) (211825; BD Difco) was used for S. aureus ATCC 25923. Finally, brain heart infusion (BHI) (237500; BD Difco) was used for L. monocytogenes KCTC 3710. The antimicrobial activity of each peptide was determined using microdilution assays. To this end, 2-fold serial dilution series of each peptide (from 1 to 64 μM) were added to duplicate media with 10 mM sodium phosphate buffer (pH 7.4). Fifty microliters of the peptide and antibiotic solution was added to each well of a 96-well plate (32096, surface nontreatment; SPL Life Sciences). Then, 50 μL of 2 × 10^5 CFU mL^−1 of bacteria was added to each well, and the samples were incubated for 18 to 24 h without shaking at 37°C.

MDR E. coli ASEC 14 = test system: MDR E. coli ASEC 14; design: method as in Asan hospital; key to susceptibility category: S: susceptible; R: resistant; I: intermediate; conditions: ref Asan hospital, cited from earlier work; for MIC: ASEC 14 (AmpC), resistance information of clinical isolate; for susceptibility category: ASEC 14
MDR E. coli ASEC 15 = test system: MDR E. coli ASEC 15; design: method as in Asan hospital; key to susceptibility category: S: susceptible; R: resistant; I: intermediate; conditions: ref Asan hospital, cited from earlier work; for MIC: ASEC 15 (AmpC), resistance information of clinical isolate; for susceptibility category: ASEC 15
[2] = 200 μg/mL^−1; previous study; cited from earlier work
From the text: In this study, we confirmed that PN5 has antimicrobial activities against Gram-negative and Gram-positive bacteria, including MDR E. coli. The ASEC strains that were clinically isolated from patients, mentioned in Table S3 in the supplemental material, produced ESBL, which induces resistance to β-lactam antibiotics, and New Delhi metallo-β-lactamase (NDM), which hydrolyzes a class of carbapenems. […] The four PN peptides (PN5, PN7, PN8, and PN10) purified from pine ne ...

P. aeruginosa ATCC 27853 = assay type: cell-based, Pseudomonas aeruginosa; conditions: microdilution, NB, 18 to 24 h, 37°C, three independent experiments
Description: as §1

RAW 264.7 cells = assay: IncuCyte Cytotox green time-dependent cytotoxicity; assay type: cell-based, mouse; conditions: 200 μM, 24 h
Description: An IncuCyte cytotoxicity assay (Essen BioScience, Inc., Ann Arbor, MI, USA) was performed to evaluate time-dependent cytotoxicity. RAW 264.7 cells (2 × 10^5 cells well^−1) were seeded into 96-well culture plates and then treated with peptides and IncuCyte Cytotox green reagent (Essen BioScience, Inc.). Up to 200 μM PN5 and 25 μM melittin were used to treat RAW 264.7 cells, with the concentrations serially diluted by half. […] The cells were stained with IncuCyte Cytotox green reagent. The viability was measured using IncuCyte software (Essen BioScience, Inc.) ([56]).

[3] = test system: L. monocytogenes KCTC 3710; assay type: cell-based, Listeria monocytogenes; conditions: microdilution, BHI, 18 to 24 h, 37°C, three independent experiments
Description: as §1

B. subtilis KCTC 2217 = assay type: cell-based, Bacillus subtilis; conditions: microdilution, LB, 18 to 24 h, 37°C, three independent experiments
Description: as §1

elastase = target: T1, elastase (Homo sapiens, UniProt P08246); assay: Resistance to proteolytic degradation, RP-HPLC; assay type: in vitro ADME; conditions: 50 μg PN5, 10 μg mL^−1 elastase, 0.1 M Tris-HCl pH 8.0, 37°C, 0 to 540 min; RP-HPLC C18, 214 nm
T1 construct: purchased Sigma-Aldrich 324681
Description: The stability of PN5 in the presence of the enzyme was measured by treatment with elastase. First, 10 μg mL^−1 elastase in 0.1 M Tris-HCl (pH 8.0) was incubated with 50 μg PN5 at 37°C with shaking (180 rpm), with aliquots collected at 0, 30, 60, 120, 360, 540, and 720 min. After incubation, each sample was observed by RP-HPLC with a Jupiter C18 column (4.6 by 250 mm, 300 Å, 5 μm). E. coli 25922 and S. aureus 25923 were cultured in LB and TSB media with shaking (180 rpm) at 37°C, washed twice with 10 mM sodium phosphate buffer (pH 7.4), suspended in 10 mL LB and TSB media at 2 × 10^5 CFU mL^−1, mixed with 0.2% agarose, and dried for 1 h. Paper disks (6 mm) were placed on the dried agarose, and 50 μg PN5 aliquots was dropped onto the disks. The disks were stored in a 37°C incubator for 24 h. PN5- and elastase (10 μg mL^−1)-treated PN5 was prepared to evaluate the susceptibility to E. coli 25922 and S. aureus 25923. PN5 (6.25, 12.5, 25, 50, and 100 μg) was diluted in 10 mM sodium phosphate buffer (pH 7.4) and 10 μg mL^−1 elastase. E. coli 25922 and S. aureus 25923 were prepared at 2 × 10^5 CFU mL^−1. Peptides with 10 μg mL^−1 elastase and bacteria were incubated for 9 h with shaking (180 rpm) and observed using a visible spectrophotometer (Pharmacia Biotech, Uppsala, Sweden) ([60]).

S. Typhimurium KCTC 1926 = assay type: cell-based, Salmonella enterica serovar Typhimurium; conditions: microdilution, NB, 18 to 24 h, 37°C, three independent experiments
Description: as §1

S. aureus ATCC 25923 = assay type: cell-based, Staphylococcus aureus; conditions: microdilution, TSB, 18 to 24 h, 37°C, three independent experiments
Description: as §1

T1 sequence (P08246 30-267): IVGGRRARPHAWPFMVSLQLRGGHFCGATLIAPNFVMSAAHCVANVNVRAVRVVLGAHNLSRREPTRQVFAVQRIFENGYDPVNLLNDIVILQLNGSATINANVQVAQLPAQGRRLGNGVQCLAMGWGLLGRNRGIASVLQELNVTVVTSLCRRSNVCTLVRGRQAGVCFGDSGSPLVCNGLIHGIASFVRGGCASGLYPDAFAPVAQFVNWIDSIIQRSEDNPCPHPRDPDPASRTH

Row | Molecule | MIC (MDR E. coli ASEC 18) | susceptibility category (MDR E. coli ASEC 18) | MIC [1] | MIC (MDR E. coli ASEC 14) | susceptibility category (MDR E. coli ASEC 14) | MIC (MDR E. coli ASEC 15) | susceptibility category (MDR E. coli ASEC 15) | cytotoxicity [2] | MIC (P. aeruginosa ATCC 27853) | cytotoxicity, Cytotox green fluorescence (RAW 264.7 cells) | MIC [3] | MIC (B. subtilis KCTC 2217) | peak of residual peptide after incubation with elastase (elastase) | MIC (S. Typhimurium KCTC 1926) | MIC (S. aureus ATCC 25923)
1 | CO/N=C(\C(=O)N[C@@H]1C(=O)N2C(C(=O)O)=C(COC(C)=O)CS[C@H]12)c1csc(N)n1 [Cefotaxime] | 32 µg/mL (≈ 70.3 µM) | R | > 32 µM | > 32 µg/mL | R | > 32 µg/mL | R | – | – | – | – | – | – | – | –
2 | CC(C)(O/N=C(\C(=O)N[C@@H]1C(=O)N2C(C(=O)[O-])=C(C[n+]3ccccc3)CS[C@H]12)c1csc(N)n1)C(=O)O [Ceftazidime] | > 16 µg/mL | R | > 32 µM | > 16 µg/mL | R | > 16 µg/mL | R | – | – | – | – | – | – | – | –
3 | C[C@@H](O)[C@H]1C(=O)N2C(C(=O)O)=C(S[C@@H]3CN[C@H](C(=O)N(C)C)C3)[C@H](C)[C@H]12 [Meropenem] | <= 1 μg mL-1 | S | – | 8 µg/mL (≈ 20.9 µM) | R | <= 1 μg mL-1 | S | – | – | – | – | – | – | – | –
4 | FKFLARTGKFL-NH2 [PN5] | – | – | – | – | – | – | – | less than 20% | 4 µM | no toxicity | 16 µM | 4 µM | remained even after 9 h | 2 µM | 2 µM
